Assay results reported in patent US20200078379A1, “DEFEROXAMINE DERIVATIVES AS MEDICAMENTS” (BIOTECHNOLOGICKY USTAV AV CR, V.V.I., priority 2017, published 2020).
Read-outs that look alike come from different tables or passages of the source.

Legend:
MCF7 cells [1] = experiment: crystal violet assay, cellular viability; format: cell-based, human; details: for IC50: MCF7, 48 h, read-out: IC50 cellular viability
Method: (§1) Compound 1 and compound 2 were tested in their efficacy to kill malignant MCF7 cancer cells. Briefly, 10.000 cells per well were seeded in a 96-well plat on one day and the next day selected compounds were added and incubated with the cells for 48 hrs. The cells were then fixed with 4% paraformaldehyde, stained with 0.05% crystal violet, washed with PBS, and solubilized in 1% SDS. The absorbance of the plate at 595 nm was then measured, quantifying the number of viable cells.
(§2) A number of compounds of the present invention were tested for cytotoxicity towards at least some of human breast cancer cell lines (MCF7, MDA-MB-231), human fibroblast (BJ) and murine triple negative breast cancer cell line 4T1 (Table 2).

MDA-MB-231 cells [2] = experiment: crystal violet assay, cellular viability; format: cell-based, human; details: Homo sapiens, read-out: IC50 cellular viability
Method: as §1, §2

[3] = test system: murine triple negative breast cancer cell line 4T1; experiment: crystal violet assay, cellular viability; format: cell-based; details: Mus musculus, 4T1, 48 hours
Method: as §1, §2

T47D cells [4] = experiment: crystal violet assay, cellular viability; format: cell-based; details: 48 hours
BT549 cells = experiment: AnnexinV/PI cell death assay; format: cell-based; details: BT549, 200 μM, 48 hrs
Method: (§3) To confirm such findings by an independent method, cell death-inducing potency (cytotoxic efficacy) of DFO and compound 2 have been tested via annexin V/PI staining commonly used as a measure of apoptotic/necrotic cell death. Briefly, cells were seeded in 12-well plate at 100,000 per well, incubated with the selected compounds for 48 hours, then floating cells were spun, adherent cells trypsinized and spun as well followed by the staining with AnnexinV-FITC and PI probes. Cells were then washed with PBS and measured via Fluorescence Activated Sorter.

BT474 cells = experiment: AnnexinV/PI cell death assay; format: cell-based; details: BT474, 200 μM, 48 hrs
Method: as §3

MDA-MB-231 cells [5] = experiment: AnnexinV/PI cell death assay; format: cell-based, human; details: MDA-MB-231, 200 μM, 48 hrs
Method: as §3

MCF7 cells [6] = experiment: cellular proliferation in real time, Xcelligence technology; format: cell-based
Method: The ability of compound 2 to affect the proliferation and cell death induction in real time was monitored by the Xcelligence technology that detects changes in electrical impedance related to the cell number. In brief, special 16-well e-plates containing gold electrodes were filled with medium, blank values were recorded, and then 5.000 cells per well were seeded in the plate and let to attach for 2 hours, followed by the addition of compounds. The electrical impedance was then monitored over time in real-time every 15 minutes. In this case a line is drawn that reflects the cell number over time. […] We have seen a clear inhibition of proliferation with compound 2 at 1 μM, complete block of proliferation at 2 μM concentration, while the cytotoxic effect is seen at 5 μM (Table 9).

[7] = test system: non malignant cells (BJ), human fibroblast; experiment: crystal violet assay, cellular viability; format: cell-based
Method: as §1, §2

non malignant cells (BJ) = experiment: AnnexinV/PI cell death assay; format: cell-based
Method: as §3
We have then analyzed the percentage of death cells by the annexinV/PI staining as described in example 7. We have observed a significant potentiation in cell death induction when gallium was combined with compound 2 (Table 14)

MCF7 cells [8] = experiment: AnnexinV/PI cell death assay; format: cell-based, human
Method: Briefly, cells were seeded in 12-well plate at 100,000 per well, incubated with the selected compounds for 48 hours, then floating cells were spun, adherent cells trypsinized and spun as well followed by the staining with AnnexinV-FITC and PI probes. Cells were then washed with PBS and measured via Fluorescence Activated Sorter.

T47D cells [9] = experiment: AnnexinV/PI cell death assay; format: cell-based; details: 200 μM, 48 hrs
Method: as §3
Since compound 2 is an iron chelator, we have evaluated the effect of pretreating compound 2 with iron. at a 1:1 ratio by using the Annexin V/PI staining as in example 7.

[10] = MDA-MB-231, 48 hours, crystal violet

## CC(=O)N(O)CCCCCNC(=O)CCC(=O)N(O)CCCCCNC(=O)CCC(=O)N(O)CCCCCN(CCCCCCCCCC[P+](C1CCCCC1)(C1CCCCC1)C1CCCCC1)CCCCCCCCCC[P+](C1CCCCC1)(C1CCCCC1)C1CCCCC1 [Compound 4, Tricyclohexyl(3,14,25-trihydroxy-2,10,13,21,24-pentaoxo-31-(10-(tricyclohexylphosphonio)decyl)-3,9,14,20,25,31-hexaazahentetracontan-31-ium-41-yl) phosphonium trichloride]
MCF7 cells [1]; Homo sapiens, crystal violet
  IC50: 700 nM
MDA-MB-231 cells [2]; MDA-MB-231, 48 h
  IC50: 1300 nM
[3]
  IC50: 1800 nM

## CCCC[P+](CCCC)(CCCC)CCCCCCCCCCN(CCCCCCCCCC[P+](CCCC)(CCCC)CCCC)CCCCCN(O)C(=O)CCC(=O)NCCCCCN(O)C(=O)CCC(=O)NCCCCCN(O)C(C)=O [Compound 6, 42,42-dibutyl-3,14,25-trihydroxy-2,10,13,21,24-pentaoxo-31-(10-(tributylphosphonio)decyl)-3,9,14,20,25,31-hexaaza-42-phosphahexatetracontane-31,42-diium trichloride]
MCF7 cells [1]; Homo sapiens, crystal violet
  IC50: 3000 nM
MDA-MB-231 cells [2]; [10]
  IC50: 2800 nM
[3]
  IC50: 4900 nM

## CC(=O)N(O)CCCCCNC(=O)CCC(=O)N(O)CCCCCNC(=O)CCC(=O)N(O)CCCCCN(CCCCCCCCCCCC[P+](c1ccccc1)(c1ccccc1)c1ccccc1)CCCCCCCCCCCC[P+](c1ccccc1)(c1ccccc1)c1ccccc1 [Compound 8, Triphenyl(3,14,25-trihydroxy-2,10,13,21,24-pentaoxo-31-(12-(triphenylphosphonio)dodecyl)-3,9,14,20,25,31-hexaazatritetracontan-31-ium-43-yl)phosphonium trichloride]
MCF7 cells [1]; Homo sapiens, crystal violet
  IC50: 500 nM
MDA-MB-231 cells [2]; MDA-MB-231, 48 h
  IC50: 600 nM
[3]
  IC50: 1200 nM

## CC(=O)N(O)CCCCCNC(=O)CCC(=O)N(O)CCCCCNC(=O)CCC(=O)N(O)CCCCCN(CCCCCCCCCC[P+](Cc1ccccc1)(Cc1ccccc1)Cc1ccccc1)CCCCCCCCCC[P+](Cc1ccccc1)(Cc1ccccc1)Cc1ccccc1 [Compound 9, 2,2-dibenzyl-19,30,41-trihydroxy-20,23,31,34,42-pentaoxo-1-phenyl-13410-(tribenzylphosphonio)decyl)-13,19,24,30,35,41-hexaaza-2-phosphatritetracontane-2,13-diium trichloride]
MCF7 cells [1]; Homo sapiens, crystal violet
  IC50: 900 nM
MDA-MB-231 cells [2]; MDA-MB-231, 48 h
  IC50: 800 nM
[3]
  IC50: 1800 nM

## CCCCCCCC[P+](CCCCCCCC)(CCCCCCCC)CCCCCCCCCCN(CCCCCCCCCC[P+](CCCCCCCC)(CCCCCCCC)CCCCCCCC)CCCCCN(O)C(=O)CCC(=O)NCCCCCN(O)C(=O)CCC(=O)NCCCCCN(O)C(C)=O [Compound 10, 3,14,25-trihydroxy-42,42-dioctyl-2,10,13,21,24-pentaoxo-31-(10-(trioctylphosphonio)decyl)-3,9,14,20,25,31-hexaaza-42-phosphapentacontane-31,42-diium trichloride]
MCF7 cells [1]; Homo sapiens, crystal violet
  IC50: 800 nM
MDA-MB-231 cells [2]; [10]
  IC50: 700 nM
[3]
  IC50: 1300 nM

## CC(=O)N(O)CCCCCNC(=O)CCC(=O)N(O)CCCCCNC(=O)CCC(=O)N(O)CCCCCN [DFO, deferoxamine]
T47D cells [4]; BJ vs T47D
  Selectivity index (IC50 non-malignant/IC50 malignant): 0.80
T47D cells [4]; Homo sapiens, T47D, crystal violet, read-out: IC50 cellular viability
  IC50: 272000 nM
MCF7 cells [1]; BJ vs MCF7, 48 hours
  Selectivity index (IC50 non-malignant/IC50 malignant): 1.72
MCF7 cells [1]; Homo sapiens, MCF7, 2 μM, 48 hrs, crystal violet, read-out: mean percentage of viable cells compared to non-treated controls
  viability at 2 µM: 92%
MCF7 cells [1]; Homo sapiens, MCF7, 5 μM, 48 hrs, crystal violet, read-out: mean percentage of viable cells compared to non-treated controls
  viability at 5 µM: 95.9%
MCF7 cells [1]; Homo sapiens, MCF7, 10 μM, 48 hrs, crystal violet, read-out: mean percentage of viable cells compared to non-treated controls
  viability at 10 µM: 92.2%
BT549 cells
  mean percentage of dead cells (AnnexinV/PI): 18.3%
BT474 cells
  mean percentage of dead cells (AnnexinV/PI): 19.2%
MDA-MB-231 cells [5]
  mean percentage of dead cells (AnnexinV/PI): 22.4%
MCF7 cells [6]; MCF7, 0-15 h, 1 μM
  slope of the line (relative number of cells in relation to time): 1.02
MCF7 cells [6]; MCF7, 0-15 h, 2 μM
  slope of the line (relative number of cells in relation to time): 1.12
MCF7 cells [6]; MCF7, 0-15 h, 5 μM
  slope of the line (relative number of cells in relation to time): 1.01
MCF7 cells [6]; MCF7, 0-36 h, 1 μM
  slope of the line (relative number of cells in relation to time): 1.31
MCF7 cells [6]; MCF7, 0-36 h, 2 μM
  slope of the line (relative number of cells in relation to time): 1.53
MCF7 cells [6]; MCF7, 0-36 h, 5 μM
  slope of the line (relative number of cells in relation to time): 0.50
[7]; BJ vs BJ (reference)
  Selectivity index (IC50 non-malignant/IC50 malignant): 1
[7]; Homo sapiens, Fibroblast, BJ non malignant, 48 hours, crystal violet
  IC50: 219000 nM
Non malignant cells (BJ); 200 μM, 48 hrs
  mean percentage of dead cells (AnnexinV/PI): 10.5%
MCF7 cells [8]; MCF7, 200 μM, 48 hrs
  mean percentage of dead cells (AnnexinV/PI): 45.0%
T47D cells [9]
  mean percentage of dead cells (AnnexinV/PI): 14.1 (7.2) %

## [Cl][Ga]([Cl])[Cl] [GaCl3, gallium chloride, reference compound]
Non malignant cells (BJ); ratio Ga:compound 2 1:0, 5 μM gallium salt alone
  percentage of death cells by annexinV/PI staining: 2.4 (0.1)
MCF7 cells [8]; MCF7, ratio Ga:compound 2 1:0, 5 μM gallium salt alone
  percentage of death cells by annexinV/PI staining: 5.9 (2.5)
